Key:
Myc/p53ER™ cells = test: Apoptosis of Myc/p53ER B-lymphoma cells (FIGS. 1-3); assay type: cell-based, mice
Excerpt: Because many Myc-driven tumors are defective for p53 activity, we sought to determine whether transient up-regulation of Myc also increases cell death in response to chemotherapeutic drugs in a p53-deficient background. For this purpose, we used B-lymphoma cells isolated from bone marrows of p53ER™ knock-in mice and subsequently transduced with a Myc-expressing retrovirus (2,3). This inducible system allowed us to distinguish between p53-dependent (cells treated with tamoxifen) and independent (no tamoxifen added) cell death. Additionally, instead of modulating Myc levels through miRNA inhibitors, which currently have limited clinical utility, we increased Myc stability with a small molecule inhibitor of GSK3β, which promotes proteosomal degradation of Myc. […] To validate this effect in a more relevant setting, we inhibited GSK3β in various Burkitt's lymphoma cell lines and achieved consistent up-regulation of Myc.

Myc = Myc stabilization in B lymphoma cell lines with WT or mutant Myc-Thr58 treated with CHIR-99021 (FIG. 7); assay type: cell-based; conditions: B lymphoma cell lines with WT-Myc-Thr58 or Mut-Myc-Thr58, treated for indicated periods of time
Procedure: FIG. 7: Stabilization of Myc by GSK3-inhibitors requires retention of the Myc-Threonine 58 residue: B lymphoma cell lines with WT-Myc-Thr58 (left panel) or Mut-Myc-Thr58 (right panel) were treated with CHIR-99021 for indicated periods of time.
As discussed above, treatment of Ramos cells [mutant for p53 and wild type for Myc (intact Threonine-58)] with GSK3-inhibitors increases the apoptotic response to drugs used to treat B cell lymphomas and leukemias within the CHOP-chemotherapeutic regimen: vincristine and doxorubicin. In our model, GSK3 inhibitors prevent phosphorylation of Myc at its Thr-58 residue by GSK3, inhibiting Myc degradation and inducing a transient stabilization and increase in the amount of the Myc protein. It has previously been shown that Myc-Thr58 is a hot spot for mutations in Burkitt's Lymphoma (Smith-Sorensen et al, JBC 1996), and when Myc-Thr58 is altered, the effect of transient stabilization induced by GSK3-inhibitors is lost (FIG. 7). Thus, cooperation of GSK3-inhibitors and chemotherapeutic drugs require retention of the Myc-Threonine-58 residue.

Raji cells [1] = test: Immunoblotting of Raji cells treated with TRAIL with or without CHIR-99021 (FIG. 9A); assay type: cell-based, human
Procedure: (§1) Raji cells were treated with indicated concentrations of TRAIL for 16 h in the presence or absence of CHIR-99021. (FIG. 9A) Immunoblotting with antibodies to detect cleavage of PARP and caspase-8, as well as Myc, beta-catenin and loading controls Tutbulin, Actin and GAPDH. (FIG. 9B) Caspase-3/7 activity were measured using the bioluminescent-based Caspase-3/7 Glo Kit (Promega). Fold increase in caspase activities relative to untreated cells, are shown for cells treated with TRAIL alone (light grey bars) or with TRAIL and CHIR-99021 (dark grey bars).
(§2) This finding is relevant since, as mentioned above, Threonine-58 is a hot spot for mutations in Burkitt's lymphoma (Smith-Sorensen et al, JBC 1996).

Ramos cells = test: Yo-Pro flow cytometry of Ramos cells, apoptotic response to TRAIL (FIG. 8); assay type: cell-based, human; conditions: Ramos cells pre-treated with CHIR99021 for 2 hours followed by 5 h of TRAIL
Procedure: Ramos cells where left untreated (top-left panel), treated with TRAIL for 5 h (top-right panel), treated with CHIR99021 alone (bottom-left panel) or pre-treated with CHIR99021 for 2 hours followed by 5 h of TRAIL (bottom-right panel). Percentage of death cells was measured by incorporation of the nuclear staining Yo-Pro. Percentages of living and apoptotic cells are shown in the M4 and M5 gates respectively. […] TRAIL engages the extrinsic apoptotic pathway, activating Caspase-8, and is currently in clinical trials for the treatment of different oncological malignancies (reviewed in Stuckey and Shah, Trends in Mol Med 2013).

Raji cells [2] = test: Caspase-3/7 Glo activity in Raji cells treated with TRAIL with or without CHIR-99021 (FIG. 9B); assay type: cell-based, human; conditions: increasing concentrations of TRAIL in presence or absence of CHIR-99021
Procedure: as §1, §2

For `CC/C(=C(\c1ccccc1)c1ccc(OCCN(C)C)cc1)c1ccccc1` [tamoxifen], the “apoptosis by activation of p53” value (Myc/p53ER™ cells; tamoxifen added, without doxorubicin or modulation of Myc) was “sufficient to induce robust apoptosis”.
With `COc1cccc2c1C(=O)c1c(O)c3c(c(O)c1C2=O)C[C@@](O)(C(=O)CO)C[C@@H]3O[C@H]1C[C@H](N)[C@H](O)[C@H](C)O1` [doxorubicin] the “cell killing / apoptosis” value (Myc/p53ER™ cells; absence of active p53 (no tamoxifen)) was “cell killing was rather inefficient”.
For `Cc1c[nH]c(-c2cnc(NCCNc3ccc(C#N)cn3)nc2-c2ccc(Cl)cc2Cl)n1` [CHIR-99021, 6-{2-[4-(2,4-dichlorophenyl)-5-(4-methyl-1H-imidazol-2-yl)-pyrimidin-2-ylamino]ethyl-amino}nicotinonitrile], the “stabilization of Myc” value (Myc) was “induces stabilization of Myc only when the Myc-Thr-58 residue is retained”, the “cleaved caspase 8 and cleaved PARP by immunoblotting” value (Raji cells [1]; Raji cells pre-treated with CHIR-99021 followed by TRAIL vs TRAIL only) was “increase in the amount of cleaved caspase 8 and cleaved PARP” and the “apoptotic response to TRAIL” value (Raji cells [1]; Raji cells, TRAIL for 16 h in presence or absence of CHIR-99021) was “increases the apoptotic response to TRAIL”. The levels of beta-catenin (Raji cells [1]; Raji cells, immunoblotting) was “increased levels of beta-catenin”, the “levels of mutant Myc” value (Raji cells [1]; Raji cells, immunoblotting) was “remain constant” and the “cell death with TRAIL and CHIR-99021” value (Raji cells [1]; Raji cells, no functional p53 and mutant Myc-thr58) was “killed Raji cells”. The “apoptotic response to TRAIL (percentage of dead cells by Yo-Pro)” value (Ramos cells) was “increases the apoptotic response to TRAIL” and the “caspase 3 activity” value (Raji cells [2]) was “higher levels of caspase-3 activity”.
